Literature values, collected in patent US10588873B2, “Topical antifungal compositions” (Exodos Life Sciences LP, priority 2015, dated 2020).

Conditions: only or first printed pKa

Compound	pKa
CCCCCC(=O)O [caproic (hexanoic) acid]	4.88
CC(=O)CCC(=O)O [levulinic acid]	4.6
